Source: patent US20030013643A1, “Prevention and treatment of streptococcal and staphylococcal infection” (priority 2000, published 2003)

What was measured:
GAS [1] = test: GAS attachment to murine keratinocyte cell line PAM2.12 with exogenous hyaluronic acid; type: cell-based, Streptococcus pyogenes
Experimental: For bacterial adherence assays, keratinocytes were seeded at 10^5 cells per well in collagen-coated tissue culture wells (Nalge Nunc International, Naperville, Ill.), incubated for 3 days at 34° C. in 8% CO2, washed, and overlaid with medium containing 10^6 CFU of GAS per well. After incubation for 1 hour at 34° C. in 8% CO2 the keratinocyte monolayers were washed twice to remove nonadherent bacteria, then the number of cell-associated bacteria was determined by quantitative culture after releasing the keratinocytes with try spin and lysing them in sterile water, experiments testing the effects of exogenous hyaluronic acid on GAS adherence were performed using the mouse keratinocyte cell line, PAM 2.12 (Song, I. S. 2000, Exp. Dermatol. 9:42-52). Cells were seeded in collagen-coated tissue culture wells at 10^5 cells per well, cultured for 3 days at 37° C. in 5% CO2, then inoculated with 10^6 CFU of GAS per well in medium containing exogenous hyaluronic acid (from rooster comb, Sigma Chemicals, St. Louis, Mo.), no inhibitor, or a control polysaccharide, alginic acid, a high-molecular-weight polymer of mannuronic acid and guluronic acid (Protonal Durvillea Alginate, Pronova. Biopolymer, Inc., Portsmouth, N.H.). Cells were incubated for 45 minutes at 37° C. in 5% CO2, then processed for enumeration of adherent bacteria as described above. In experiments to test whether exogenous hyaluronic acid could promote dissociation of GAS attached to keratinocytes, GAS were allowed to attach to keratinocytes in the absence of inhibitor; after 45 minutes, the medium was removed and replaced with fresh medium containing hyaluronic acid, no inhibitor, or alginic acid. After 45 minutes of incubation, the number of adherent bacteria was enumerated as described above.
To investigate the specificity of the interaction between the GAS capsule and CD44 on epithelial cells, the ability of exogenous hyaluronic acid to compete with GAS for binding to murine keratinocytes was examined. Addition of exogenous hyaluronic acid to concentration 1 mg/ml[…], inhibited GAS attachment to the murine keratinocyte cell line PAM2.12 by >95% (P<0.03, FIG. 5). A concentration of 1 /ml alginic acid, another high molecular weight acidic polysaccharide, had no effect, supporting the hypothesis that adherence depends on a specific interaction between the GAS hyaluronic acid capsule and CD44 .
In addition to the 1 mg/ml concentration of hyaluronic acid, additional trials were performed as indicated above, with a range of concentrations of hyaluronic acid added to the cells. The concentrations tested included 4 mg/ml, 2 mg/ml, 1 mg/ml, 0.75 mg/ml, 0.5 mg/ml, 0.25 mg/ml and 0.1 mg/ml. The hyaluronic acid concentrations from 4 mg/ml to 0.25 mg/ml blocked GAS binding by greater than 70%. Hyaluronic acid concentrations from 4 mg/ml to 0.5 mg/ml blocked GAS binding by greater than 80% (FIG. 6).

GAS [2] = test: GAS translocation through abraded human skin equivalent; type: cell-based, Streptococcus pyogenes; conditions: pre-treated at 2 mg/ml for 1 hour; 4 hour infection period
Experimental: To examine GAS translocation in a model system similar to normal human skin, we utilized pseudo-organ cultures of human skin equivalent. This material is made by constructing a “dermis” that consists of human fibroblasts cultured in a collagen matrix; human foreskin keratinocytes are seeded on top of the dermal equivalent and cultured under conditions that promote differentiation into a stratified squamous epithelium with a stratum comeum. The histology of the human skin equivalent is very similar to that of normal human skin except for the absence of non-keratinocyte elements such as blood vessels and hematopoietic cells, nerves, and hair follicles. Since intact human skin is highly resistant to GAS infection, we simulated minor trauma to the superficial epidermis by abrading the surface of the skin equivalent with a cytology brush to introduce breaks in the stratum corneum. GAS were inoculated onto the surface of abraded skin equivalent that had either been pre-treated with nothing, HA, or AL at 2 mg/ml for 1 hour and translocation through the tissue was monitored by culture of GAS from the basal surface of the skin equivalent at intervals. As depicted in FIG. 10, HA inhibited translocation GAS by 91% (solid bars). In comparison the AL control prevented only 14% of bacteria from translocating through the skin equivalent during the 4 hour infection period. […]

[3] = system: Group A Streptococcus (GAS, strain 950771); test: Bacterial binding to human keratinocyte monolayers, GAS; type: cell-based; conditions: 1 mg/ml pre-incubation; multiplicity of infection 10; 1 hour
Experimental: (§1) Keratinocyte monolayers were prepared as descibed above in Methods section and pre-incubated with 1 mg/ml alginate (AL, solid bars) or 1 mg/ml hyaluronic acid (HA, hatched bars) prior to surface inoculation (as described above in Methods) with either Group A Streptococcus (GAS, strain 950771), Group B Streptococcus (GBS, strain 515), Streptococcus pneumoniae (S. pneumo, type 6), or Staphylococcus aureus (S. aureus, type 8) at a multiplicity of infection of 10 bacteria per keratinocyte for 1 hour.

[4] = system: Group B Streptococcus (GBS, strain 515); test: Bacterial binding to human keratinocyte monolayers, GBS; type: cell-based; conditions: 1 mg/ml pre-incubation; multiplicity of infection 10; 1 hour
Experimental: as §1

[5] = system: Streptococcus pneumoniae (S. pneumo, type 6); test: Bacterial binding to human keratinocyte monolayers, S. pneumoniae; type: cell-based; conditions: 1 mg/ml pre-incubation; multiplicity of infection 10; 1 hour
Experimental: as §1

[6] = system: Staphylococcus aureus (S. aureus, type 8); test: Bacterial binding to human keratinocyte monolayers, S. aureus; type: cell-based; conditions: 1 mg/ml pre-incubation; multiplicity of infection 10; 1 hour
Experimental: as §1

hyaluronic acid
reduction in bacterial attachment (GAS [1]; added up to 45 minutes after adding GAS to the keratinocytes, P<0.03): > 90% | reduction of GAS attachment (GAS [1]; addition delayed for 2 hours, P<0.03): 70-80% | blocking of GAS binding (GAS [1]; concentrations from 4 mg/ml to 0.25 mg/ml): greater than 70% | blocking of GAS binding (GAS [1]; concentrations from 4 mg/ml to 0.5 mg/ml): greater than 80% | inhibition of GAS attachment to PAM2.12 (GAS [1]; hyaluronic acid 1 mg/ml added with GAS, P<0.03): > 95% | inhibition of translocation of GAS through skin equivalent (GAS [2]): 91% | inhibition of binding [3]: more than 80% | inhibition of binding [4]: more than 80% | inhibition of binding [5]: more than 80% | inhibition of binding [6]: more than 80%
